Reference: ChEMBL document CHEMBL5055675, “Apoptosis Inducing 1,3,4-Oxadiazole Conjugates of Capsaicin: Their In Vitro Antiproliferative and In Silico Studies” (ACS Med Chem Lett, 2021)
Active and inactive are the calls of the source. No cut-off for these calls is given here.

Assays:
[1] = system: CCRF-CEM; test: Antiproliferative activity against human CCRF-CEM cells assessed as cell growth at 10 uM incubated for 48 hrs by sulforhodamine B assay relative to control; assay type: functional; details: read-out: Activity
[2] = system: K562; test: Antiproliferative activity against human K562 cells assessed as cell growth at 10 uM incubated for 48 hrs by sulforhodamine B assay relative to control; assay type: functional; details: read-out: Activity
[3] = system: A549; test: Antiproliferative activity against human A549/ATCC cells assessed as cell growth at 10 uM incubated for 48 hrs by sulforhodamine B assay relative to control; assay type: functional; details: read-out: Activity
[4] = system: EKVX; test: Antiproliferative activity against human EKVX cells assessed as cell growth at 10 uM incubated for 48 hrs by sulforhodamine B assay relative to control; assay type: functional; details: read-out: Activity
[5] = system: HOP-62; test: Antiproliferative activity against human HOP-62 cells assessed as cell growth at 10 uM incubated for 48 hrs by sulforhodamine B assay relative to control; assay type: functional; details: read-out: Activity
[6] = system: NCI-H322M; test: Antiproliferative activity against human NCI-H322M cells assessed as cell growth at 10 uM incubated for 48 hrs by sulforhodamine B assay relative to control; assay type: functional; details: read-out: Activity
[7] = system: NCI-H522; test: Antiproliferative activity against human NCI-H522 cells assessed as cell growth at 10 uM incubated for 48 hrs by sulforhodamine B assay relative to control; assay type: functional; details: read-out: Activity
[8] = system: COLO 205; test: Antiproliferative activity against human COLO 205 cells assessed as cell growth at 10 uM incubated for 48 hrs by sulforhodamine B assay relative to control; assay type: functional; details: read-out: Activity
[9] = system: HCC 2998; test: Antiproliferative activity against human HCC 2998 cells assessed as cell growth at 10 uM incubated for 48 hrs by sulforhodamine B assay relative to control; assay type: functional; details: read-out: Activity
[10] = system: HT-29; test: Antiproliferative activity against human HT-29 cells assessed as cell growth at 10 uM incubated for 48 hrs by sulforhodamine B assay relative to control; assay type: functional; details: read-out: Activity
[11] = system: SF-268; test: Antiproliferative activity against human SF-268 cells assessed as cell growth at 10 uM incubated for 48 hrs by sulforhodamine B assay relative to control; assay type: functional; details: read-out: Activity
[12] = system: SF-295; test: Antiproliferative activity against human SF-295 cells assessed as cell growth at 10 uM incubated for 48 hrs by sulforhodamine B assay relative to control; assay type: functional; details: read-out: Activity
[13] = system: SK-MEL-2; test: Antiproliferative activity against human SK-MEL-2 cells assessed as cell growth at 10 uM incubated for 48 hrs by sulforhodamine B assay relative to control; assay type: functional; details: read-out: Activity
[14] = system: OVCAR-8; test: Antiproliferative activity against human OVCAR-8 cells assessed as cell growth at 10 uM incubated for 48 hrs by sulforhodamine B assay relative to control; assay type: functional; details: read-out: Activity
[15] = system: NCI/ADR-RES; test: Antiproliferative activity against human NCI/ADR-RES cells assessed as cell growth at 10 uM incubated for 48 hrs by sulforhodamine B assay relative to control; assay type: functional; details: read-out: Activity
[16] = system: 786-0; test: Antiproliferative activity against human 786-0 cells assessed as cell growth at 10 uM incubated for 48 hrs by sulforhodamine B assay relative to control; assay type: functional; details: read-out: Activity
[17] = system: CAKI-1; test: Antiproliferative activity against human CAKI-1 cells assessed as cell growth at 10 uM incubated for 48 hrs by sulforhodamine B assay relative to control; assay type: functional; details: read-out: Activity
[18] = system: RXF 393; test: Antiproliferative activity against human RXF 393 cells assessed as cell growth at 10 uM incubated for 48 hrs by sulforhodamine B assay relative to control; assay type: functional; details: read-out: Activity
[19] = system: TK-10; test: Antiproliferative activity against human TK-10 cells assessed as cell growth at 10 uM incubated for 48 hrs by sulforhodamine B assay relative to control; assay type: functional; details: read-out: Activity
[20] = system: UO-31; test: Antiproliferative activity against human UO-31 cells assessed as cell growth at 10 uM incubated for 48 hrs by sulforhodamine B assay relative to control; assay type: functional; details: read-out: Activity
[21] = system: PC-3; test: Antiproliferative activity against human PC-3 cells assessed as cell growth at 10 uM incubated for 48 hrs by sulforhodamine B assay relative to control; assay type: functional; details: read-out: Activity
[22] = system: NCI-H460; test: Antiproliferative activity against human NCI-H460 cells assessed as cell growth inhibition measured after 72 hrs by crystal violet staining based assay; assay type: functional; details: NCI-H460, 72 h
[23] = system: NCI-H460; test: Induction of ROS production in human NCI-H460 cells incubated for 24 hrs by CM-H2DCFDA probe based flow cytometry analysis; assay type: functional, cell-based; details: dose 5-20 µM
[24] = system: NCI-H460; test: Induction of ROS production in human NCI-H460 cells at 20 uM incubated for 24 hrs by CM-H2DCFDA probe based flow cytometry analysis; assay type: functional, cell-based
[25] = system: NCI-H460; test: Cell cycle arrest in human NCI-H460 cells assessed as accumulation of cells in G1 phase at 5 uM measured after 72 hrs by propidium iodide/RNase staining based flow cytometry analysis (Rvb= 62.9%); assay type: functional
[26] = system: NCI-H460; test: Cell cycle arrest in human NCI-H460 cells assessed as accumulation of cells in G2/M phase at 5 uM measured after 72 hrs by propidium iodide/RNase staining based flow cytometry analysis (Rvb= 10.22%); assay type: functional
[27] = system: NCI-H460; test: Cell cycle arrest in human NCI-H460 cells assessed as accumulation of cells in G2/M phase at 10 uM measured after 72 hrs by propidium iodide/RNase staining based flow cytometry analysis (Rvb= 10.22%); assay type: functional
[28] = system: NCI-H460; test: Cell cycle arrest in human NCI-H460 cells assessed as accumulation of cells in G1 phase at 20 uM measured after 72 hrs by propidium iodide/RNase staining based flow cytometry analysis (Rvb= 62.9%); assay type: functional
[29] = system: NCI-H460; test: Cell cycle arrest in human NCI-H460 cells assessed as accumulation of cells in G2/M phase at 20 uM measured after 72 hrs by propidium iodide/RNase staining based flow cytometry analysis (Rvb= 10.22%); assay type: functional
[30] = system: NCI-H460; test: Induction of apoptosis in human NCI-H460 cells assessed as early apoptotic cells at 5 uM measured after 72 hrs by Annexin V-FITC and propidium iodide staining based flow cytometry analysis (Rvb= 6.61%); assay type: functional
[31] = system: NCI-H460; test: Induction of apoptosis in human NCI-H460 cells assessed as early apoptotic cells at 10 uM measured after 72 hrs by Annexin V-FITC and propidium iodide staining based flow cytometry analysis (Rvb= 6.61%); assay type: functional
[32] = system: NCI-H460; test: Induction of apoptosis in human NCI-H460 cells assessed as late apoptotic cells at 10 uM measured after 72 hrs by Annexin V-FITC and propidium iodide staining based flow cytometry analysis (Rvb= 6.93%); assay type: functional
[33] = system: NCI-H460; test: Induction of apoptosis in human NCI-H460 cells assessed as early apoptotic cells at 20 uM measured after 72 hrs by Annexin V-FITC and propidium iodide staining based flow cytometry analysis (Rvb= 6.61%); assay type: functional
[34] = system: NCI-H460; test: Induction of apoptosis in human NCI-H460 cells assessed as decrease in pro-caspase3 expression level at 1 to 20 uM measured after 72 hrs by western blot analysis; assay type: functional, cell-based; details: dose 1-20 µM
[35] = system: NCI-H460; test: Antimigratory activity against human NCI-H460 cells assessed as reduction in VEGF expression level measured after 72 hrs by western blot analysis; assay type: functional, cell-based; details: dose 1-20 µM
[36] = system: NCI-H460; test: Inhibition of cell proliferation in human NCI-H460 cells assessed as reduction in PCNA expression measured after 72 hrs by western blot analysis; assay type: functional, cell-based; details: dose 1-20 µM
[37] = system: NCI-H460; test: Reduction in VEGFR2 mRNA expression in human NCI-H460 cells at 10 to 20 uM by real-time qPCR analysis; assay type: functional, cell-based; details: dose 10-20 µM

SMILES	growth at 10 µM [1] [%]	growth at 10 µM [2] [%]	growth at 10 µM [3] [%]	growth at 10 µM [4] [%]	growth at 10 µM [5] [%]	growth at 10 µM [6] [%]	growth at 10 µM [7] [%]	growth at 10 µM [8] [%]	growth at 10 µM [9] [%]	growth at 10 µM [10] [%]	growth at 10 µM [11] [%]	growth at 10 µM [12] [%]	growth at 10 µM [13] [%]	growth at 10 µM [14] [%]	growth at 10 µM [15] [%]	growth at 10 µM [16] [%]	growth at 10 µM [18] [%]	growth at 10 µM [19] [%]	growth at 10 µM [20] [%]	growth at 10 µM [21] [%]	further results
COc1cc(CNC(=O)CCCC/C=C/C(C)C)ccc1OCc1nnc(Nc2ccc([N+](=O)[O-])cc2)o1	78.8	59.6	49	74.7	0	54.9	73	70.9	83.6	71.7	79.7	64.9	71.9	25	79.6	22.2	54.1	84.1	58.7	37.6	growth at 10 µM [17]: 33.6%; IC50 [22]: 5.41 µM; Activity [23]: Dose-dependent effect; Activity [24]: Active; Activity [25]: 61.8%; Activity [26]: 10.03%; Activity [27]: 11.81%; Activity [28]: 56.45%; Activity [29]: 8.706%; Activity [30]: 5.45%; Activity [31]: 8.29%; Activity [32]: 9.27%; Activity [33]: 21.15%; Activity [34]: Active; Activity [35]: Dose-dependent effect; inhibition [36]: Dose-dependent effect; inhibition [37]: Active
COc1cc(CNC(=O)CCCC/C=C/C(C)C)ccc1OCc1nnc(Nc2cccc(Br)c2)o1	81.8	65	95.4	78.1	75.6	98	68.6	110	101	97.7	92.6	84.2	105	98	87	95.6	70.6	104	64	87.9	–
COc1cc(CNC(=O)CCCC/C=C/C(C)C)ccc1OCc1nnc(Nc2ccccc2F)o1	83	60.4	105	77.1	56.4	86.1	60.3	104	90.8	90	45.5	48	111	45.2	43.4	12	68.8	97.7	52.8	72.5	IC50 [22]: 14.4 µM
COc1cc(CNC(=O)CCCC/C=C/C(C)C)ccc1OCc1nnc(SCCc2c[nH]c3ccccc23)o1	34.7	40.7	79.4	57.4	92.8	88.7	59.4	71.2	98	69.7	78.9	68.8	86.7	71.3	56.5	89.3	54	91.7	45	56.9	IC50 [22]: 9.89 µM
